Measurements as given in US11975017B2, “Compositions comprising an RNA polymerase inhibitor and cyclodextrin for treating viral infections” (priority 2017, dated 2024).
Values after ≈ are worked out from the molar mass of the structure shown.

Experiments:
[1] = format: physicochemical; conditions: between pH 1 and 10; FIG. 2
Procedure: The stability of Compound 1 was determined by monitoring the concentration of Compound 1 in solution by liquid chromatography at various storage conditions. […] The solubility of Compound 1 between pH 1 and 10 was determined by quantitatively measuring the concentration of Compound 1 in solution at various pH conditions by liquid chromatography.

physchem = conditions: water

## CCC(CC)COC(=O)[C@H](C)N[P@](=O)(OC[C@H]1O[C@@](C#N)(c2ccc3c(N)ncnn23)[C@H](O)[C@@H]1O)Oc1ccccc1 [Compound 1, (S)-2-ethylbutyl 2-(((S)-(((2R,3S,4R,5R)-5-(4-aminopyrrolo[2,1-f][1,2,4]triazin-7-yl)-5-cyano-3,4-dihydroxytetrahydrofuran-2-yl)methoxy)(phenoxy)phosphoryl)amino)propanoate]
[1]
  solubility as a function of pH: increases at or below pH 4
physchem
  solubility: ~30 µg/mL (≈ 49.8 µM)
